Reference: patent publication US7750114B2, “Peptides having a high cysteine content” (priority 2002, dated 2010)
Bridge positions count the residues as written; N and C are the ends. Ends that are not written are not given here.

Experiments:
[1] = tested on: murine peritoneal macrophages; assay: Effect on murine peritoneal macrophages (NO, TNF-α, IL-10, survival); assay type: cell-based, CD1 mice; details: 24 hours; for IL-10 / TNF-α: control 0; for NO: control 1.1; for Survival rate: control 100
Protocol: Murine peritoneal macrophages extracted from CD1 mice were used. A peritoneal flushing was carried out using 5 ml of PBS. After three washing processes with RPMI 1640 the cells were put into a 96-well culturing plate with a concentration of 1×10^6 cells/ml (200 μl/well) in 10% FCS-RPMI 1640 medium and kept for 24 hours. After the incubation the cells were washed three times with RPMI 1640 and resuspended in 10% FCS-RPMI 1640 medium (100 μl/well) in the absence (non stimulated) or in the presence (stimulated) of different stimulants. After 24 hours of incubation NO, IL-10 and TNF-α were measured in the culture supernatant.

[2] = tested on: Colon cancer cell line: Colo 205; assay: Living Colo 205 cells by MTT test; assay type: cell-based, homo sapiens; details: 24 h
Protocol: After adherence of the cells (incubation 24 h, cell amount 1×10^4 cells per batch), the cells were treated for 24 h with MCS and/or peptides (Hellethionin C (CZT), Hellethionin D (DZT)) and afterwards the percentage of living cells was measured by MTT test.
The MTT cell growth test was carried out according to Alley et. al. (M. C. Alley et al., Proc. Am. Assoc. Cancer Res., 27:389, 1986; M. C. Alley et al., Cancer Res. 48:589-601, 1988). The finale concentration of 3-(4,5-dimethylthiazol-2-yl)-2,5-diphenyltetrazoliumbromide was 0.4 mg/ml.

[3] = tested on: lung carcinoma cell line: A549; assay: Living A549 cells by AlamarBlue test; assay type: cell-based, homo sapiens; details: 100 μg/ml, after 72 h, FIG. 4
Protocol: Cell line: lung carcinoma cell line: A549 (ATCC No. CCL-185™), organism: homo sapiens, literature: Giard D J, et al. J. Natl. Cancer Inst. 51: 1417-1423, 1973.
After adherence of the cells (incubation 24 h, cell amount 5×10^3 cells per batch), the cells were treated for 72 h with MCS and/or peptides (CZT, DZT) and afterwards the percentage of living cells was measured by AlamarBlue test.
AlamarBlue™ cell growth test was carried out according to the specifications of the manufacturer (Serotec, Oxford, England, www.serotc.com).

[4] = tested on: primary human immune cells; assay: Effect on the cytokine production of primary human immune cells (Quantikine ELISA in lymphocyte cultures); assay type: cell-based; details: for TGF-β2 concentration: control 9; for IL-4 concentration: control 34; for IL-3 concentration: control 41; for IL-2R concentration: control 44; for IL-10 concentration: control 69; for IL-6R concentration: control 171
Protocol: The effect of the peptide HT-A on the cytokine production of primary human immune cells was determined through the measurement of the concentration of cytokines in lymphocyte cultures obtained from human blood. Dosages of 4-200 μg/ml of the hellethionins were used, which were obtained by adding the calculated amounts in the form of a stock solution. The concentration of individual cytokines in the treated and control samples is determined by means of the commercially available “Quantikine” ELISA plates from R&D Biosystems, Minneapolis, USA. The results were compared with control samples, i.e. with the lymphocyte culture without addition of the peptide.
In the case of the lymphocyte cultures (4 million cells per ml) treated with 4 μg and 200 μg of the peptide HT-A, respectively, the following cytokine (and cytokine receptor) concentrations [pg/ml] were obtained in comparison with the control sample (without peptide): […]

human lymphocytes = details: Büssing A. et al. 1999; cited from earlier work
[5] = mammals; cited from earlier work

KSCCRNTLARNCYNACRFTGGSQPTCGILCDCIHVTTTTCPSSHPS (disulfide 3-40, 4-32, 12-30, 16-26) [HT-D, hellethionin-D]
IL-10 ([1]; 5 μg/ml): 0 pg/mL | TNF-α ([1]; 5 μg/ml): 18 pg/mL | NO ([1]; 5 μg/ml): 0.8 µM | Survival rate ([1]; 5 μg/ml): 87.6% | IL-10 ([1]; 100 μg/ml): 0 pg/mL | TNF-α ([1]; 100 μg/ml): 0 pg/mL | NO ([1]; 100 μg/ml): 1.3 µM | Survival rate ([1]; 100 μg/ml): 42.8% | Living Colo 205 cells ([2]; 50 μg/ml): 92.15% | Living Colo 205 cells ([2]; 100 μg/ml, listed as DZT): about 50% | Living Colo 205 cells ([2]; 100 μg/ml, listed as DZT peptide): 58.66% | living cells (A549) [3]: about 50%

KSCCRNTLGRNCYNACRLTGTSQATCATLCDCIHVTATTCRPPYPS (disulfide 3-40, 4-32, 12-30, 16-26) [HT-C, hellethionin-C]
Survival rate ([1]; 5 μg/ml): 80.3% | Survival rate ([1]; 100 μg/ml): 10.7%

hellethionin-A [HT-A]
TGF-β2 concentration ([4]; 4 μg/ml peptide): 105 pg/mL | IL-4 concentration ([4]; 4 μg/ml peptide): 19 pg/mL | IL-3 concentration ([4]; 4 μg/ml peptide): 26 pg/mL | IL-2R concentration ([4]; 4 μg/ml peptide): 30 pg/mL | IL-10 concentration ([4]; 4 μg/ml peptide): 288 pg/mL | IL-6R concentration ([4]; 4 μg/ml peptide): 100 pg/mL | TGF-β2 concentration ([4]; 200 μg/ml peptide): 45 pg/mL | IL-4 concentration ([4]; 200 μg/ml peptide): 12 pg/mL | IL-3 concentration ([4]; 200 μg/ml peptide): 8 pg/mL | IL-2R concentration ([4]; 200 μg/ml peptide): 67 pg/mL | IL-10 concentration ([4]; 200 μg/ml peptide): 12 pg/mL | IL-6R concentration ([4]; 200 μg/ml peptide): 65 pg/mL | expression of pro-inflammatory cytokines IL-2, IL-3, IL-4 and γ-IFN ([4]; 4 and 200 μg/ml): inhibiting the expression | influence on production of IL-6 or TNF-α and expression of the IL-1 receptor ([4]; 4 and 200 μg/ml): no significant influence | effect on cytokines acting suppressively, IL-10 and TGF-β2 ([4]; more intense at 4 μg/ml than at 200 μg/ml): shows a stimulation

purothionins
toxic effect on human lymphocytes (human lymphocytes): do not exert a toxic effect

viscotoxins
LD50 [5]: 0.1 to 1 mg/kg | toxic effect on human lymphocytes (human lymphocytes): toxic
